Patent US20240366598A1, “GLUCOSE-DEPENDENT INSULINOTROPIC POLYPEPTIDE RECEPTOR ANTAGONISTS AND USES THEREOF” (Pfizer Inc., priority 2023, published 2024)

Target: T1, human Glucose-dependent Insulinotropic Polypeptide Receptor (hGIPR) (Homo sapiens, UniProt P48546)
T1 sequence (P48546 22-466): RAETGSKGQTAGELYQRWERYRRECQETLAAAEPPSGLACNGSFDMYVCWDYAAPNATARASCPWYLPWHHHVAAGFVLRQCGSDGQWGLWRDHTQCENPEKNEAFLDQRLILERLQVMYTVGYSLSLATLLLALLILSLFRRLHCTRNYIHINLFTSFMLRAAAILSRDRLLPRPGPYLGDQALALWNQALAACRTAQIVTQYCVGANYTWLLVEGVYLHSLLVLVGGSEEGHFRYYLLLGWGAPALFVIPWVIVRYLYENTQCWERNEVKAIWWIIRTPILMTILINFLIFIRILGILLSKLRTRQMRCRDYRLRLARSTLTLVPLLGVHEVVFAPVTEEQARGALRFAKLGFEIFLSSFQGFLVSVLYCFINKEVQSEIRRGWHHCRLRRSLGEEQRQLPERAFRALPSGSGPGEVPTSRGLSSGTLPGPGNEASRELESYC
Test: Functional in vitro GIPR antagonist potency assay (cAMP HTRF, CHO-K1 cells stably expressing hGIPR, hGIP stimulation at about EC80)
Format: cell-based
Conditions: geometric mean, hGIP at estimated EC80, examples marked ^2: overall geometric mean of multiple forms (including salts) tested
Summary of the method: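 HTRF quantification of cAMP after stimulation with hGIP at an estimated EC80 for 30 min at 37 °C. Before stimulation, hGIPR-expressing CHO-K1 cells were exposed 2 h to test compound in IBMX-containing buffer, with 0.5% DMSO final. Percent effect is referenced to agonist alone (0%) and to 80 μM of a reference antagonist (100%), and runs required the agonist concentration to fall within the on-the-day EC50–EC90.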

Row | IC50 [nM] | Structure (SMILES)
1 | 11 | O=C(O)c1ccc(-c2ccc(NC(=O)[C@H]3CCCN3C(=O)NCc3ccc(C(F)(F)F)cc3)nc2)cc1 [Example 153, 4-(6-{[1-({[4-(trifluoromethyl)phenyl]methyl}carbamoyl)-D-prolyl]amino}pyridin-3-yl)benzoic acid]
2 | 58 | CC(C)c1ccc(NC(=O)N2C[C@H]3C[C@H]3[C@@H]2C(=O)Nc2ccc(-c3cccc(C(=O)O)c3)cc2)cc1 [Example 154, 4′-{[(1R,2R,5S)-3-{[4-(propan-2-yl)phenyl]carbamoyl}-3-azabicyclo[3.1.0]hexane-2-carbonyl]amino}[1,1′-biphenyl]-3-carboxylic acid]
3 | 22 | O=C(O)c1ccc(-c2ccc(NC(=O)[C@H]3CCCN3C(=O)Nc3ccc(CC(F)(F)F)cc3)cc2)cc1 [Example 155, 4′-[(1-{[4-(2,2,2-trifluoroethyl)phenyl]carbamoyl}-D-prolyl)amino][1,1′-biphenyl]-4-carboxylic acid]
4 | 45 | COc1cc(C(=O)O)ccc1-c1ccc(NC(=O)[C@H]2CCCN2C(=O)Nc2ccc(C(C)C)c(C)c2)nc1 [Example 156, 3-methoxy-4-{6-[(1-{[3-methyl-4-(propan-2-yl)phenyl]carbamoyl}-D-prolyl)amino]pyridin-3-yl}benzoic acid]
5 | 10 | O=C(O)c1ccc(-c2ccc(NC(=O)[C@H]3CCCN3C(=O)NCc3ccc(C(F)(F)F)cc3)cc2)cc1 [Example 157, 4′-{[1-({[4-(trifluoromethyl)phenyl]methyl}carbamoyl)-D-prolyl]amino}[1,1′-biphenyl]-4-carboxylic acid]
6 | 7.7 | COc1cc(-c2ccc(NC(=O)[C@H]3CCCN3C(=O)Nc3ccc(C(F)(F)F)c(C)c3)cc2)ccc1C(=O)O [Example 158, 3-methoxy-4′-[(1-{[3-methyl-4-(trifluoromethyl)phenyl]carbamoyl}-D-prolyl)amino][1,1′-biphenyl]-4-carboxylic acid]
7 | 110 | CC(C)c1ccc(NC(=O)N2C[C@@H]3C[C@@H]3[C@@H]2C(=O)Nc2ccc(-c3cccc(C(=O)O)c3)cc2)cc1 [Example 159, 4′-{[(1S,2R,5R)-3-{[4-(propan-2-yl)phenyl]carbamoyl}-3-azabicyclo[3.1.0]hexane-2-carbonyl]amino}[1,1′-biphenyl]-3-carboxylic acid]
8 | 75 | Cc1cc(NC(=O)[C@H]2CCCN2C(=O)Nc2ccc(C3CCC3)cc2)cnc1-c1ccc(C(=O)O)cc1 [Example 160, 4-[5-({1-[(4-cyclobutylphenyl)carbamoyl]-D-prolyl}amino)-3-methylpyridin-2-yl]benzoic acid]
9 | 77 | O=C(O)c1ccc2cc(NC(=O)[C@H]3CCCN3C(=O)Nc3ccc(C(F)(F)F)cc3)ccc2c1 [Example 161, 6-[(1-{[4-(trifluoromethyl)phenyl]carbamoyl}-D-prolyl)amino]naphthalene-2-carboxylic acid]
10 | 44 | Cc1cc(NC(=O)N2CCC[C@@H]2C(=O)Nc2ccc3cc(C(=O)O)ccc3c2)ccc1C(C)C [Example 162, 6-[(1-{[3-methyl-4-(propan-2-yl)phenyl]carbamoyl}-D-prolyl)amino]naphthalene-2-carboxylic acid]
11 | 19 | Cc1cc(NC(=O)N2CCC[C@@H]2C(=O)Nc2ccc(-c3ccc(C(=O)O)cc3)nc2)ccc1C(F)(F)F [Example 163, 4-{5-[(1-{[3-methyl-4-(trifluoromethyl)phenyl]carbamoyl}-D-prolyl)amino]pyridin-2-yl}benzoic acid]
12 | 22 | C[C@H](NC(=O)N1CCC[C@@H]1C(=O)Nc1ccc(-c2ccc(C(=O)O)cc2)cc1)c1ccc(C(F)(F)F)cc1 [Example 164, 4′-{[1-({(1S)-1-[4-(trifluoromethyl)phenyl]ethyl}carbamoyl)-D-prolyl]amino}[1,1′-biphenyl]-4-carboxylic acid]
13 | 7.2 | Cc1cc(NC(=O)N2CCC[C@@H]2C(=O)Nc2ccc(-c3ccc(C(=O)O)nc3C)cc2)ccc1C(F)(F)F [Example 167, 6-methyl-5-{4-[(1-{[3-methyl-4-(trifluoromethyl)phenyl]carbamoyl}-D-prolyl)amino]phenyl}pyridine-2-carboxylic acid]
14 | 15 | Cc1cc(NC(=O)N2CCC[C@@H]2C(=O)Nc2ccc(-c3ccc(C(=O)O)nc3C)cc2)ccc1C(C)C [Example 168, 6-methyl-5-{4-[(1-{[3-methyl-4-(propan-2-yl)phenyl]carbamoyl}-D-prolyl)amino]phenyl}pyridine-2-carboxylic acid]
15 | 49 | Cc1nc(C(=O)O)ccc1-c1ccc(NC(=O)[C@H]2CCCN2C(=O)Nc2ccc(C(F)(F)F)cc2)cc1 [Example 169, 6-methyl-5-{4-[(1-{[4-(trifluoromethyl)phenyl]carbamoyl}-D-prolyl)amino]phenyl}pyridine-2-carboxylic acid]
16 | 40 | COc1cc(-c2ccc(NC(=O)[C@H]3CCCN3C(=O)Nc3ccc(C(F)(F)F)cc3)cc2)ccc1C(=O)O [Example 170, 3-methoxy-4′-[(1-{[4-(trifluoromethyl)phenyl]carbamoyl}-D-prolyl)amino][1,1′-biphenyl]-4-carboxylic acid]
17 | 16 | Cc1cc(C(=O)O)ccc1-c1ccc(NC(=O)[C@H]2CCCN2C(=O)Nc2ccc(C(C)C)cc2)nc1 [Example 171, 3-methyl-4-{6-[(1-{[4-(propan-2-yl)phenyl]carbamoyl}-D-prolyl)amino]pyridin-3-yl}benzoic acid]
18 | 31 | Cc1cc(C(=O)O)ccc1-c1ccc(NC(=O)[C@H]2CCCN2C(=O)Nc2ccc(C(F)(F)F)cc2)nc1 [Example 172, 3-methyl-4-{6-[(1-{[4-(trifluoromethyl)phenyl]carbamoyl}-D-prolyl)amino]pyridin-3-yl}benzoic acid]
19 | 4.4 | Cc1cc(C(=O)O)ccc1-c1ccc(NC(=O)[C@H]2CCCN2C(=O)Nc2ccc(C(C)C)c(C)c2)nc1 [Example 173, 3-methyl-4-{6-[(1-{[3-methyl-4-(propan-2-yl)phenyl]carbamoyl}-D-prolyl)amino]pyridin-3-yl}benzoic acid]
20 | 49 | Cc1cc(NC(=O)N2CCC[C@@H]2C(=O)Nc2ccc(-c3ccc(C(=O)O)nc3)cc2)ccc1C1CC1 [Example 174, 5-[4-({1-[(4-cyclopropyl-3-methylphenyl)carbamoyl]-D-prolyl}amino)phenyl]pyridine-2-carboxylic acid]
21 | 8.3 | Cc1cc(NC(=O)N2CCC[C@@H]2C(=O)Nc2ccc(-c3cccc(C(=O)O)c3)cn2)ccc1C(F)(F)F [Example 175, 3-{6-[(1-{[3-methyl-4-(trifluoromethyl)phenyl]carbamoyl}-D-prolyl)amino]pyridin-3-yl}benzoic acid]
22 | 11 | Cc1cc(C(=O)O)ccc1-c1ccc(NC(=O)[C@H]2CCCN2C(=O)Nc2ccc(C(C)C)c(F)c2)nc1 [Example 176, 4-{6-[(1-{[3-fluoro-4-(propan-2-yl)phenyl]carbamoyl}-D-prolyl)amino]pyridin-3-yl}-3-methylbenzoic acid]
23 | 8.2 | Cc1cc(NC(=O)N2CCC[C@@H]2C(=O)Nc2ccc(-c3ccc(C(=O)O)cc3)cn2)ccc1C(F)(F)F [Example 177, 4-{6-[(1-{[3-methyl-4-(trifluoromethyl)phenyl]carbamoyl}-D-prolyl)amino]pyridin-3-yl}benzoic acid]
24 | 11 | O=C(O)c1ccc(-c2ccc(NC(=O)[C@H]3CCCN3C(=O)Nc3ccc(C4(C(F)(F)F)CC4)cc3)nc2)cc1 [Example 178, 4-(6-{[1-({4-[1-(trifluoromethyl)cyclopropyl]phenyl}carbamoyl)-D-prolyl]amino}pyridin-3-yl)benzoic acid]
25 | 3.7 | Cc1cc(NC(=O)N2CCC[C@@H]2C(=O)Nc2ccc(-c3ccc(C(=O)O)cc3)cn2)ccc1C1CC1 [Example 179, 4-[6-({1-[(4-cyclopropyl-3-methylphenyl)carbamoyl]-D-prolyl}amino)pyridin-3-yl]benzoic acid]
26 | 53 | Cc1cc(NC(=O)N2CCC[C@@H]2C(=O)Nc2ccc(-c3ccc(C(=O)O)cn3)cc2)ccc1C(C)C [Example 180, 6-{4-[(1-{[3-methyl-4-(propan-2-yl)phenyl]carbamoyl}-D-prolyl)amino]phenyl}pyridine-3-carboxylic acid]
27 | 24 | O=C(O)c1cccc(-c2ccc(NC(=O)[C@H]3CCCN3C(=O)Nc3ccc(C(F)(F)F)cc3)nc2)c1 [Example 181, 3-{6-[(1-{[4-(trifluoromethyl)phenyl]carbamoyl}-D-prolyl)amino]pyridin-3-yl}benzoic acid]
28 | 23 | CC(C)c1ccc(NC(=O)N2CCC[C@@H]2C(=O)Nc2ccc(-c3ccc(C(=O)O)cn3)cc2)cc1F [Example 182, 6-{4-[(1-{[3-fluoro-4-(propan-2-yl)phenyl]carbamoyl}-D-prolyl)amino]phenyl}pyridine-3-carboxylic acid]
29 | 9.3 | Cc1cc(NC(=O)N2CCC[C@@H]2C(=O)Nc2ccc(-c3cccc(C(=O)O)c3)cn2)ccc1C(C)C [Example 183, 3-{6-[(1-{[3-methyl-4-(propan-2-yl)phenyl]carbamoyl}-D-prolyl)amino]pyridin-3-yl}benzoic acid]
30 | 43 | Cc1cc(NC(=O)N2CCC[C@@H]2C(=O)Nc2ccc(-c3cccc(C(=O)O)c3)cn2)ncc1C(C)C [Example 184, 3-{6-[(1-{[4-methyl-5-(propan-2-yl)pyridin-2-yl]carbamoyl}-D-prolyl)amino]pyridin-3-yl}benzoic acid]
